For assay [1], the system named is RC-I,II cell (cultured cell derived from rat calvaria). Nature of the assay: Osteogenesis inducing activity on cultured cell derived from rat calvaria (northern blotting of ALP, COL1 and OC genes). The format is cell-based. The method, then:
(1) Preparation of Cultured Cell Derived from Rat Calvaria
Cultured cell derived from rat calvaria was isolated from Wister rats (obtained from sankyo-rabo) of three days old by following method.
The rats were killed, decapitated and their calvarias were picked out. The tissue was flaked by a tweezer and suspended into a solution for enzyme treatment, containing 0.04% of EDTA, collagenase (crude type 1A: SIGMA: 0.1%) and trypsin (0.05%). The sample was treated in the enzyme solution for 30 min under temperature of 37° C. Then, the enzyme solution was harvested and cells extricated into the enzyme solution was harvested by centrifugation (RC-I). The enzyme solution was added again and digested at 37° C. for 30 min. Cells extricated into the enzyme solution was designated as RC-II.
The RC-I and RC-II thus obtained were mixed and used for following experiments. The cell mixture of RC-I and RC-II was designated as RC-I,II cell in following description. […] The RC-I and RC-II described above hardly expressed alkaline phosphatase (ALP), type 1 collagen (COL1) and osteocarcin (OC) gene. The genes described above are used for marker genes of osteoblast (T. R. Arnett et al, Methods in Bone Biology, 1988, Chapman & Hall).
(3) Estimation of Osteogenesis Inducing Activity of the Lipid-bound Glycosaminoglycan
HA-PE produced as described above was dissolved in hank's solution at concentration of 5 μg/ml and 2 ml of hank's solution containing HA-PE was poured into polystyrene culture dish with diameter of 10 cm. The dish was coated by settling the dish for 16 hours at 4° C. The dish treated by hank's solution without HA-PE was used for control.
The RC-I,II cell suspension, prepared as described above, was poured on the dish at the density of 1×10^4 cells/cm^2. The cell was cultured in α-minimum eagle medium (MEM: GIBCO) solution containing 1% anti-biotics, anti-mycoplasma solution (containing 50 μg/ml ascorbic acid and 5 mM β-glycerophosphate, GIBCO) and 10% fatal bovine serum (FBS: GIBCO).
At the time just after cell reached to confluent, one week after confluent and two weeks after confluent, total RNA of the cell was extracted by guanidine-phenol-chloroform method. The expression of ALP, COL1 and OC genes was analyzed by northern blotting method. The expression of these genes are used as an indicator of osteoblast differentiation. In FIG. 1, Et-Br indicates control sample obtained by staining of ribosomal RNA by ethydium bromide. Moreover, digitalized result calculated from northern blotting of FIG. 1 by Quantity One program (TOYOBO) was shown in FIG. 2 as a value standardized against the control described above.

For assay [2] the following is noted: hyaluronic acid with a molecular weight of 20,000 to 60,000, at a concentration of 0.5 mg/ml; cited from earlier work.
[3] abbreviates: RC-I,II cell cultured in dish coated with 5 μg/ml HA-PE, northern blotting at confluent, one and two weeks after confluent, vs dish treated without HA-PE.

Turning to “L-(α-phosphatidyl)ethanolamine dipalmytoyl conjugated hyaluronic acid [HA-PE]”, the “induction of osteocyte differentiation” value in assay [1] (RC-I,II cell cultured in HA-PE coated dish (5 μg/ml)) is “significant induction of osteocyte differentiation”. For the same substance, in assay [1] (setting [3]), the “expression of ALP gene” value is “predominant increase”, the “expression of COL1 gene” value was “predominant increase” and the “expression of OC gene” value is recorded as “predominant increase”.
In the case of hyaluronic acid, the osteogenesis induction activity result in assay [2] is reported as “osteogenesis induction activity”.

Values taken from patent US20030064960A1, “Medicine for inducing osteogenesis” (priority 1999, published 2003).
